Molecules are shown by their SMILES.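 48-hour exposure; five concentrations; linearly interpolated endpoints. GI50 is the concentration that inhibits growth by half.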 The source made the active and inactive calls. No stated cut-off is given here; in the data, active = GI50 up to about 1.1 µM and inactive = higher.

Test systems include ACHN; CAKI-1; HCT-116; HL-60; HOP-62; K562; KM12; LOX IMVI; MOLT-4; Malme-3M; NCI-H522; OVCAR-3; OVCAR-8; PC-3; RPMI-8226; SF-268; SNB-19; UACC-257; UACC-62; HOP-92.
Common to all, as to assay: growth of human tumour cells (NCI), 48 h

In the case of `CCN(CC)c1ccc2cc(-c3nnc(-c4ccccc4)[nH]3)c(=O)oc2c1`, the GI50 with ACHN was 36.7 µM (inactive); with CAKI-1, 26.9 µM (inactive); with HCT-116, 35.8 µM (inactive); in the experiment on HL-60, > 100 µM (inactive); in the experiment on HOP-62, 7.28 µM (inactive); in the experiment with K562, > 100 µM (inactive). Besides, the GI50 with KM12 was 40 µM (inactive); in the experiment on LOX IMVI, 94.4 µM (inactive); in the experiment with MOLT-4 it was > 100 µM (inactive); with Malme-3M, 83 µM (inactive); in the experiment on NCI-H522, 18.7 µM (inactive); with OVCAR-3 it was 40.5 µM (inactive). Further, the GI50 in the experiment with OVCAR-8 was 3.78 µM (inactive); with PC-3, 14.9 µM (inactive); in the experiment with RPMI-8226, 54.2 µM (inactive); in the experiment with SF-268 it was 62.8 µM (inactive); in the experiment with SNB-19, 12.2 µM (inactive); with UACC-257 it was > 100 µM (inactive). Also, the GI50 with UACC-62 was > 100 µM (inactive).

Turning to `CCOc1ccc(/C(Cl)=C(\C=O)c2ccc(OC)c(OC)c2)cc1OCC`, the GI50 with ACHN was 37.1 µM (inactive); in the experiment on CAKI-1 it was > 100 µM (inactive); in the experiment with HCT-116, 33.8 µM (inactive); in the experiment on HL-60, 21.7 µM (inactive); with HOP-62 it was 30.1 µM (inactive); in the experiment on HOP-92 it was 58.2 µM (inactive). Moreover, the GI50 with K562 is 23.5 µM (inactive); in the experiment on KM12 it was 91.4 µM (inactive); with LOX IMVI, 64.1 µM (inactive); in the experiment on MOLT-4 it was 27.9 µM (inactive); in the experiment with Malme-3M, 37.5 µM (inactive); in the experiment on NCI-H522, 18.2 µM (inactive). Further, the GI50 in the experiment on OVCAR-3 is > 100 µM (inactive); in the experiment on OVCAR-8, 46.8 µM (inactive); in the experiment with RPMI-8226 it was 28.1 µM (inactive); in the experiment with SF-268, 63.8 µM (inactive); in the experiment on SNB-19, 55.3 µM (inactive); with UACC-257, 32.3 µM (inactive). In addition, the GI50 in the experiment with UACC-62 is 33 µM (inactive).

For `N#CC(c1ccccc1)c1cccc2ccccc12` (stereo not drawn), the GI50 in the experiment on ACHN is 44.8 µM (inactive); with CAKI-1, 17.4 µM (inactive); in the experiment with HCT-116, 65 µM (inactive); in the experiment with HL-60, 21.1 µM (inactive); with HOP-62, 90.2 µM (inactive); with K562, 26 µM (inactive). For the same compound, the GI50 with KM12 was 21.8 µM (inactive); with LOX IMVI, 21.3 µM (inactive); in the experiment on MOLT-4 it was 17.5 µM (inactive); in the experiment on Malme-3M it was 21.5 µM (inactive); in the experiment with NCI-H522, 22 µM (inactive); in the experiment with OVCAR-3 it was 29.9 µM (inactive). Moreover, the GI50 is 27.4 µM (inactive) with OVCAR-8; 22.5 µM (inactive) with PC-3; 25.7 µM (inactive) in the experiment on RPMI-8226; 19.9 µM (inactive) in the experiment with SF-268; 53.5 µM (inactive) with SNB-19; 24.4 µM (inactive) in the experiment with UACC-257. Further, the GI50 in the experiment with UACC-62 is 52.2 µM (inactive).

For the compound `CCCCC(O)(c1ccccc1)C(O)(c1ccccc1)c1c(F)c(F)c(F)c(F)c1F` (stereo not drawn), the GI50 in the experiment on ACHN was 19.6 µM (inactive); in the experiment with HCT-116, 18.1 µM (inactive); in the experiment with HL-60, 21.3 µM (inactive); in the experiment on HOP-62, 17.5 µM (inactive); in the experiment with HOP-92 it was 17.4 µM (inactive); in the experiment with K562 it was 27.4 µM (inactive). Also, the GI50 is 16.8 µM (inactive) with MOLT-4; 16.7 µM (inactive) with Malme-3M; 17.4 µM (inactive) in the experiment with OVCAR-3; 22.1 µM (inactive) in the experiment with OVCAR-8; 19.1 µM (inactive) with PC-3; 18.2 µM (inactive) in the experiment on RPMI-8226. Also, the GI50 was 20 µM (inactive) in the experiment with SF-268, 41.8 µM (inactive) in the experiment with SNB-19, 18.2 µM (inactive) in the experiment on UACC-257 and 17.4 µM (inactive) in the experiment with UACC-62.

Consider `O=P(O)(O)c1ccc(-c2ccc(I)cc2)cc1`, for which the GI50 in the experiment with ACHN, in the experiment on CAKI-1, in the experiment with HCT-116, in the experiment on HL-60, in the experiment on HOP-62 and in the experiment on K562 was > 100 µM (inactive) in each case. The GI50 in the experiment on KM12, in the experiment with LOX IMVI, in the experiment on MOLT-4, in the experiment on Malme-3M, with NCI-H522 and with OVCAR-8 was > 100 µM (inactive) each time. Further, the GI50 in the experiment with PC-3, in the experiment with RPMI-8226, in the experiment on SF-268, in the experiment with SNB-19, in the experiment on UACC-257 and in the experiment with UACC-62 was > 100 µM (inactive) in each case.

`COC(=O)C(Nc1ccc(OC)cc1)c1ccccc1` (stereo not drawn): the GI50 in the experiment on ACHN, in the experiment with CAKI-1, with HCT-116, in the experiment on HOP-62, in the experiment with K562 and in the experiment on KM12 was > 100 µM (inactive) throughout. Besides, the GI50 in the experiment on LOX IMVI, in the experiment on MOLT-4, in the experiment on NCI-H522, with OVCAR-3, with OVCAR-8 and in the experiment with PC-3 was > 100 µM (inactive) throughout. The GI50 was 83.9 µM (inactive) in the experiment on RPMI-8226; > 100 µM (inactive) in the experiment on SF-268; > 100 µM (inactive) in the experiment with SNB-19; > 100 µM (inactive) in the experiment on UACC-257; > 100 µM (inactive) in the experiment on UACC-62.

In the case of `Cc1cc(C[C@H]2O[C@@H]3OC(C)(C)O[C@@H]3[C@H]3OC(C)(C)O[C@H]32)c2ccccc2n1`, the GI50 in the experiment on ACHN was > 100 µM (inactive); in the experiment with CAKI-1, 56.6 µM (inactive); with HCT-116, 72.6 µM (inactive); in the experiment with HL-60 it was 27.5 µM (inactive); in the experiment with HOP-62 it was 55.3 µM (inactive); in the experiment on K562, 48.1 µM (inactive). Further, the GI50 was 54.8 µM (inactive) in the experiment on KM12; > 100 µM (inactive) in the experiment on LOX IMVI; 31.8 µM (inactive) with MOLT-4; 64.9 µM (inactive) with Malme-3M; 16 µM (inactive) with NCI-H522; 43.1 µM (inactive) in the experiment on OVCAR-8. The GI50 in the experiment with PC-3 is 40.1 µM (inactive); with RPMI-8226, 27.1 µM (inactive); in the experiment with SF-268 it was > 100 µM (inactive); in the experiment with SNB-19, > 100 µM (inactive); in the experiment on UACC-257, > 100 µM (inactive); in the experiment on UACC-62, > 100 µM (inactive).

`CS/C(=N\c1ccccc1Cl)NC(=O)c1ccc(Br)cc1`: the GI50 in the experiment with ACHN was > 100 µM (inactive); with CAKI-1, 32.1 µM (inactive); with HCT-116, > 100 µM (inactive); with HL-60, 34 µM (inactive); in the experiment on HOP-62, 21.3 µM (inactive); in the experiment with HOP-92 it was < 0.01 µM (active). The GI50 with K562 was 14.9 µM (inactive); with KM12 it was > 100 µM (inactive); in the experiment on LOX IMVI, > 100 µM (inactive); in the experiment on MOLT-4, 18.5 µM (inactive); in the experiment on Malme-3M it was 33.9 µM (inactive); in the experiment with NCI-H522 it was 40.6 µM (inactive). Further, the GI50 was > 100 µM (inactive) with OVCAR-3; > 100 µM (inactive) in the experiment with OVCAR-8; 55.5 µM (inactive) with RPMI-8226; 59.8 µM (inactive) in the experiment with SF-268; 33.1 µM (inactive) in the experiment with SNB-19; > 100 µM (inactive) in the experiment with UACC-257. The GI50 in the experiment with UACC-62 is 28.4 µM (inactive).

For `COc1cc(/C=C2\C[C@H]3[C@@H]4CCc5cc(OCCN6CCCC6)ccc5[C@H]4CC[C@]3(C)C2=O)cc(OC)c1OC`, the GI50 with ACHN is 1.79 µM (inactive); in the experiment with CAKI-1 it was 1.75 µM (inactive); with HCT-116 it was 1.54 µM (inactive); in the experiment on HOP-62, 1.77 µM (inactive); in the experiment on K562, 1.62 µM (inactive); with KM12 it was 1.69 µM (inactive). In addition, the GI50 with LOX IMVI was 1.69 µM (inactive); with MOLT-4 it was 1.31 µM (inactive); with OVCAR-8 it was 1.63 µM (inactive); with PC-3, 1.73 µM (inactive); in the experiment with RPMI-8226, 1.66 µM (inactive); in the experiment on SNB-19, 2.3 µM (inactive). The GI50 was 2.2 µM (inactive) with UACC-257 and 2.52 µM (inactive) with UACC-62.

Turning to `COc1ccc(C2CC3(c4ccccc4)ON=C(c4ccccc4)N3c3ccccc3S2)cc1` (stereo not drawn), the GI50 in the experiment with ACHN, in the experiment with CAKI-1, in the experiment on HCT-116, with HOP-62, in the experiment with KM12 and in the experiment with LOX IMVI was > 100 µM (inactive) in each case. Moreover, the GI50 with Malme-3M, with NCI-H522, with OVCAR-3, in the experiment on OVCAR-8, in the experiment with PC-3 and with RPMI-8226 was > 100 µM (inactive) throughout. Besides, the GI50 in the experiment on SF-268, in the experiment on UACC-257 and in the experiment with UACC-62 was > 100 µM (inactive) each time.

For the compound `O=C(NNC(=O)c1ccccc1O)c1ccccc1O`, the GI50 was 0.0507 µM (active) in the experiment on ACHN; < 0.0237 µM (active) in the experiment on CAKI-1; 0.0446 µM (active) in the experiment with HCT-116; 0.0528 µM (active) with HL-60; 2.31 µM (inactive) with HOP-62; 2.25 µM (inactive) in the experiment on HOP-92. For the same compound, the GI50 with K562 is < 0.0221 µM (active); with KM12, 0.413 µM (active); with LOX IMVI, 0.0918 µM (active); in the experiment with MOLT-4 it was 0.0385 µM (active); with Malme-3M, 0.0393 µM (active); in the experiment on NCI-H522, 0.112 µM (active). For the same compound, the GI50 in the experiment on OVCAR-3 was 0.258 µM (active); with OVCAR-8, 0.929 µM (active); in the experiment on RPMI-8226, 0.326 µM (active); in the experiment with SF-268 it was < 0.0233 µM (active); in the experiment with SNB-19, 0.0525 µM (active); in the experiment on UACC-257, 0.376 µM (active). Also, the GI50 in the experiment with UACC-62 is 0.0495 µM (active).

Values taken from ChEMBL document CHEMBL1201862, “PubChem BioAssay data set” (2004).
